Experimental data published in US11999727B2 (Tango Therapeutics, Inc., priority 2020, dated 2024).

How the values were obtained:
[1] = tested on: HAP1 MTAP-deleted cell line; test: Viability assay, MTAP-deleted cell line; assay type: cell-based; details: Homo sapiens, read-out: HAP1 MTAP deleted viability
Excerpt: Table 1 additionally indicates IC50 values in a viability assay for the MTAP-deleted cell line (column 10), indicating the effect of treatment with compound on cell survival.

PRMT5 [2] = molecular target: T1, PRMT5 (Homo sapiens, UniProt O14744); test: PRMT5 biochemical IC50 assay with no cofactor; details: PRMT5, no cofactor
T1 construct: purchased Viva (custom protein)
Excerpt: Table 1 indicates IC50 values (μM) against PRMT5 for exemplary compounds in the presence of SAM as cofactor, with no cofactor, and with MTA as cofactor, respectively (columns 4-6). […] Ki values can be calculated from the IC50 values as described in the Examples section. As detailed in the Examples section, for the assay performed in the presence of SAM, IC50=Ki×1.5 (Ki=IC50/1.5).

PRMT5 [3] = molecular target: T1, PRMT5; test: PRMT5 biochemical IC50 assay with MTA as cofactor; details: PRMT5, MTA as cofactor; read-out: MTA IC50
[4] = tested on: HAP1 MTAP-deleted cell line; test: SDMA in-cell western assay, HAP1 MTAP-deleted; assay type: cell-based; details: for IC50: Homo sapiens, HAP1, SDMA in-cell western, HAP1 MTAP-deleted; for MTAP intact/deleted ratio: SDMA in-cell western
In short: (§1)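 Readout: in-cell western detection of SDMA. Cells: HAP1 expressing endogenous MTAP and an MTAP-null HAP1 counterpart. Output: IC50.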

[5] = tested on: HAP1 MTAP-intact cell line; test: SDMA in-cell western assay, HAP1 MTAP-intact; assay type: cell-based; details: Homo sapiens, HAP1, SDMA in-cell western, HAP1 MTAP-intact; read-out: MTAP HAP1 intact IC50
In short: as §1

PRMT5 [6] = molecular target: T1, PRMT5; test: PRMT5 biochemical IC50 assay with SAM as cofactor; details: PRMT5, SAM as cofactor; read-out: SAM IC50
[7] = read-out: No Cofactor/ rel IC50
[8] = read-out: HAP 1 MTAP deleted IC50
[9] = IC50 ratio HAP1 MTAP-intact / HAP1 MTAP-deleted
[10] = HAP1, viability assay, HAP1 MTAP-deleted
[11] = read-out: HAP1 MTAP deleted IC50
[12] = HAP1, viability assay, MTAP-deleted cell line

T1 sequence (O14744 whole entry): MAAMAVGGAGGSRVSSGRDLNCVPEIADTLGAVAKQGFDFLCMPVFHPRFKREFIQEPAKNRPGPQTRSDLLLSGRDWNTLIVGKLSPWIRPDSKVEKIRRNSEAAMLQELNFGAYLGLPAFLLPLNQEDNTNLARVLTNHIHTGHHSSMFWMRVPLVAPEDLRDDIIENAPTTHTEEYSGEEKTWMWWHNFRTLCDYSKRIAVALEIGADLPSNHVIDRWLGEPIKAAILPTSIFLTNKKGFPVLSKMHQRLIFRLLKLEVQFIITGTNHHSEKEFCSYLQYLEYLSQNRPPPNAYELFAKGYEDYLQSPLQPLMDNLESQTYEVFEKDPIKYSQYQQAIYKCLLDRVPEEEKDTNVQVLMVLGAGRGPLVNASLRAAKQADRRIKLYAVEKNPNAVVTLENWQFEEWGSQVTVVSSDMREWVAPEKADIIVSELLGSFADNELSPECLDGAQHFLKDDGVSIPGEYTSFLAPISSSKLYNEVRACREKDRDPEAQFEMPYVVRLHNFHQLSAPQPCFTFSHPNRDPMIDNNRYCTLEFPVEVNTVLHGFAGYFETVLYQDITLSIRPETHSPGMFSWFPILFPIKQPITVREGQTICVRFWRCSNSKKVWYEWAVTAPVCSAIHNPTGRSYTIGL
T1 sequence (Q9BQA1 whole entry partner): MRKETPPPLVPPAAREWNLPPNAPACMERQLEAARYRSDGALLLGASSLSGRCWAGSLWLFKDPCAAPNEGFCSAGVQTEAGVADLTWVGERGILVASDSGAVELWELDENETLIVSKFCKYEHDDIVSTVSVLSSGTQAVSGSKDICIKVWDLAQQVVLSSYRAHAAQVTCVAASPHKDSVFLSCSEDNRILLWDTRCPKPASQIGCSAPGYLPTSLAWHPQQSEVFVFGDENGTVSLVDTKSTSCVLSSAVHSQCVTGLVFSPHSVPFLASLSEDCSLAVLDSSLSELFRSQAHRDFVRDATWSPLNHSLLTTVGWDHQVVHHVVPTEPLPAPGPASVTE

SMILES	IC50 ([1]; HAP1, viability, HAP1 MTAP-deleted cell line)	IC50 (PRMT5 [2]; [7])	IC50 (PRMT5 [3])	IC50 [4, 8]	MTAP intact/deleted ratio [4, 9]	IC50 [5]	IC50 (PRMT5 [6])	IC50 [1, 10]	IC50 (PRMT5 [2]; read-out: No Cofactor/rel IC50)	IC50 [4, 11]	IC50 [1, 12]	MTAP intact/deleted ratio ([4]; IC50 ratio HAP1 MTAP-intact vs HAP1 MTAP-deleted)	IC50 ([1]; HAP1, viability IC50, MTAP-deleted cell line)
CCc1cc(NC(=O)C(=O)N2C[C@@H](C)CC[C@@H]2c2ccc3sc(N4CCOCC4)nc3c2)cnc1N [Compound 1267, N-(6-amino-5-ethylpyridin-3-yl)-2-((2R,5S)-5-methyl-2-(2-morpholinobenzo[d]thiazol-5-yl)piperidin-1-yl)-2-oxoacetamide]	< 1000 nM	< 50 nM	< 50 nM	< 100 nM	A (an IC50 ratio greater than or equal to 10 fold)	100 to 1000 nM	50 to 500 nM	–	–	–	–	–	–
C[C@@H]1CC[C@@H](c2ccc(F)cc2)N(C(=O)C(=O)Nc2cnc(OC(F)(F)F)c(C(N)=O)c2)C1 (racemic) [Compound 818, rac 5-[[2-[(2R,5S)-2-(4-fluorophenyl)-5-methyl-1-piperidyl]-2-oxo-acetyl]amino]-2-(trifluoromethoxy)pyridine-3-carboxamide]	–	–	50 to 500 nM	–	A (an IC50 ratio greater than or equal to 10 fold)	> 1000 nM	50 to 500 nM	> 10000 nM	50 to 500 nM	100 to 1000 nM	–	–	–
[2H][C@]1(c2ccc(F)cc2)CC[C@H](C)CN1C(=O)C(=O)Nc1cncc(C(N)=O)c1 (racemic) [Compound 1008, 5-(2-(2-(4-fluorophenyl)-5-methylpiperidin-1-yl-2-d)-2-oxoacetamido)nicotinamide]	–	–	50 to 500 nM	100 to 1000 nM	A (an IC50 ratio greater than or equal to 10 fold)	> 1000 nM	50 to 500 nM	–	50 to 500 nM	–	1000 to 10000 nM	–	–
Cc1cnc(N)c(NC(=O)C(=O)N2CCCCC2c2ccccc2)c1 (stereo not shown) [Compound 160, N-(2-amino-5-methylpyridin-3-yl)-2-oxo-2-(2-phenylpiperidin-1-yl)acetamide]	–	> 500 nM	> 500 nM	> 1000 nM	C (an IC50 ratio of less than 3 fold)	> 1000 nM	> 500 nM	–	–	–	> 10000 nM	–	–
CNc1nc2cc([C@@H]3CC[C@@H](C)CN3C(=O)C(=O)Nc3cnc(OC)c(C(N)=O)c3)ccc2s1 (single isomer, unassigned) [Compound 875]	–	–	> 500 nM	–	B (an IC50 ratio greater than or equal to 3 fold but lower than 10 fold)	> 1000 nM	> 500 nM	> 10000 nM	> 500 nM	> 1000 nM	–	–	–
Cc1cc(NC(=O)C(=O)N2C[C@H](C)CC[C@H]2c2ccn(-c3cc[nH]n3)n2)cnc1N (single isomer, unassigned) [Compound 782]	–	–	< 50 nM	–	A (an IC50 ratio greater than or equal to 10 fold)	100 to 1000 nM	< 50 nM	< 1000 nM	< 50 nM	< 100 nM	–	–	–
C[C@H]1CC[C@H](c2ccc(-c3cncs3)cc2)N(C(=O)C(=O)Nc2cncc(C(N)=O)c2)C1 (single isomer, unassigned) [Compound 821, 5-(2-(5-methyl-2-(4-(thiazol-5-yl)phenyl)piperidin-1-yl)-2-oxoacetamido)nicotinamide]	–	–	< 50 nM	–	A (an IC50 ratio greater than or equal to 10 fold)	> 1000 nM	50 to 500 nM	1000 to 10000 nM	50 to 500 nM	< 100 nM	–	–	–
CCc1cc(NC(=O)C(=O)N2C[C@@H](C)CC[C@@H]2c2ccc3sc([C@H](C)N(C)C)nc3c2)cnc1N (single isomer, unassigned) [Compound 1188]	–	–	< 50 nM	–	–	< 100 nM	50 to 500 nM	–	< 50 nM	< 100 nM	< 1000 nM	A (an IC50 ratio greater than or equal to 10 fold)	–
Cc1cc(NC(=O)C(=O)N2C[C@H](C)CC[C@H]2c2ccc3[nH]c(N)nc3c2)cnc1C (racemic) [Compound 992]	–	–	< 50 nM	< 100 nM	A (an IC50 ratio greater than or equal to 10 fold)	> 1000 nM	50 to 500 nM	–	50 to 500 nM	–	1000 to 10000 nM	–	–
Cc1cc(NC(=O)C(=O)N2C[C@H](C)CC[C@H]2c2ccncc2)cnc1N (single isomer, unassigned) [Compound 592]	–	–	50 to 500 nM	< 100 nM	A (an IC50 ratio greater than or equal to 10 fold)	100 to 1000 nM	50 to 500 nM	–	< 50 nM	–	–	–	1000 to 10000 nM
